Measured values: the Biogen ADME set (Fang et al. 2023)
Converted amounts (≈) assume the structure as drawn.

Settings: for aqueous solubility: pH 6.8

Row | MDR1-MDCK efflux ratio | intrinsic clearance, human liver microsomes | intrinsic clearance, rat liver microsomes | aqueous solubility | fraction unbound, human plasma | fraction unbound, rat plasma | Compound
1 | 3 | 52.6 mL/min/kg | 394 mL/min/kg | 1.45 µg/mL (≈ 3.6 µM) |  |  | O=S(=O)(c1cn[nH]c1)N1CCCC(c2cccc(-c3cccc(Cl)c3)n2)C1 (centres undefined)
2 | 0.519 | 57.9 mL/min/kg | 1460 mL/min/kg |  |  |  | O=c1c2sccc2nc2n1CCN(Cc1ccc(F)cc1F)CC2
3 | 0.711 | ≤ 4.74 mL/min/kg | 22.9 mL/min/kg | 40.8 µg/mL (≈ 195 µM) |  |  | COCCNc1ncnc2ccsc12
4 | 17.2 | ≤ 4.74 mL/min/kg | ≤ 10.7 mL/min/kg | 33.7 µg/mL (≈ 114 µM) |  |  | CC(=O)Nc1ccc(C(=O)N2CCc3ncncc3C2)cc1
5 | 4.45 | 45.9 mL/min/kg | 170 mL/min/kg |  |  |  | CC(C)c1cc(C(C)C)c(CC(=O)NS(=O)(=O)Oc2c(C(C)C)cccc2C(C)C)c(C(C)C)c1
6 |  | 101 mL/min/kg | 943 mL/min/kg | 2.15 µg/mL (≈ 6.73 µM) |  |  | CCc1nc2ccc(C(=O)NCc3ccccc3)cc2nc1CC
7 |  | ≤ 4.74 mL/min/kg | ≤ 10.7 mL/min/kg | 52.1 µg/mL (≈ 149 µM) |  |  | CCCn1c(=O)[nH]c2nc(-c3ccc(S(=O)(=O)O)cc3)[nH]c2c1=O
8 | 44.4 | ≤ 4.74 mL/min/kg | 29.7 mL/min/kg | 31.5 µg/mL (≈ 73.3 µM) |  |  | O=C1N[C@@H]2CCN(C(=O)c3ccc(-c4ccccc4)cc3)[C@@H]2C(=O)N1c1ccc(F)cc1
9 |  | ≤ 4.74 mL/min/kg | ≤ 10.7 mL/min/kg |  |  |  | C[C@H]1O[C@@H](Oc2c(-c3cc(O)c(O)c(O)c3)oc3cc(O)cc(O)c3c2=O)[C@@H](O)[C@H](O)[C@H]1O
10 | 3.4 | 88.8 mL/min/kg | 297 mL/min/kg | 12.6 µg/mL (≈ 42.1 µM) |  |  | CC(C)c1ccc2c(c1)[C@H](NC(=O)Cn1ccnn1)CCC2
11 | 0.524 | 32.9 mL/min/kg | 161 mL/min/kg | 36 µg/mL (≈ 149 µM) |  |  | Cc1cccnc1CNc1ccc(C#N)cc1F
12 |  | 123 mL/min/kg | 1070 mL/min/kg | 28.4 µg/mL (≈ 110 µM) |  |  | CCNC(=O)c1ccnc(-c2ccc(F)c(C)c2)c1
13 | 0.971 | 27.9 mL/min/kg | 375 mL/min/kg | 46.2 µg/mL (≈ 135 µM) |  |  | CC(C)(C)n1ncc(C(=O)N2CCCn3ncnc32)c1C(F)(F)F
14 |  | ≤ 4.74 mL/min/kg | 342 mL/min/kg |  |  |  | CCCN(C(=O)c1ccccc1N)C(C)C
15 | 2.15 |  |  | 0.2 µg/mL (≈ 0.526 µM) |  |  | COc1ccccc1N1CCN(c2nc(-c3ccc(F)cc3)cc(=O)[nH]2)CC1
16 | 6.24 | ≤ 4.74 mL/min/kg | 135 mL/min/kg | 47.8 µg/mL (≈ 162 µM) |  |  | NC(=O)C1CCN(C(=O)CCc2ccc(Cl)cc2)CC1
17 |  | 43.3 mL/min/kg | 368 mL/min/kg | 2.49 µg/mL (≈ 6.7 µM) |  |  | Cc1cc(C(=O)NC2CCN(c3ncnc4sc(C)c(C)c34)CC2)on1
18 | 3.54 | 7.18 mL/min/kg | 28.2 mL/min/kg | 62.7 µg/mL (≈ 227 µM) |  |  | CC(C)Cn1c(=O)[nH]c(=O)c2c1nc1n2CCCCC1
19 |  |  |  | 0.85 µg/mL (≈ 3.38 µM) |  |  | Cc1ccc(C(=O)Nc2nc3ccccc3[nH]2)cc1
20 | 12.7 | 17.5 mL/min/kg |  | 36 µg/mL (≈ 89.7 µM) | 0.0967 |  | Cc1cn2nc(-c3cc(=O)n4cc(N5CCNC6(CC6)C5)ccc4n3)cc(C)c2n1

Row | MDR1-MDCK efflux ratio | intrinsic clearance, human liver microsomes | intrinsic clearance, rat liver microsomes | aqueous solubility | fraction unbound, human plasma | fraction unbound, rat plasma | Compound
21 | 3.07 |  |  | 0.15 µg/mL (≈ 0.347 µM) |  |  | CN(C)S(=O)(=O)N1CCC(c2ccc3c(NCc4ccccc4F)n[nH]c3n2)CC1
22 | 0.896 | ≤ 4.74 mL/min/kg | 61.3 mL/min/kg | 45.1 µg/mL (≈ 163 µM) |  |  | O=C(CN1CCCc2ccc(F)cc21)N1CCNC1=O
23 | 0.726 |  | 3370 mL/min/kg | 56.8 µg/mL (≈ 212 µM) |  |  | COC(=O)[C@@H]1C[C@H](O)CN1CCc1ccccc1F
24 |  |  |  | 27.5 µg/mL (≈ 88.8 µM) |  |  | CC1(C)C(=O)N(Cc2ccc(CO)cc2)C(=O)c2ccccc21
25 | 0.379 | 117 mL/min/kg | 63.7 mL/min/kg | 34.4 µg/mL (≈ 135 µM) |  |  | COc1cc2c(cc1NC(C)=O)oc1ccccc12
26 |  |  |  | 0.19 µg/mL (≈ 0.72 µM) |  |  | Clc1ccc2oc(/C=C/c3csnn3)nc2c1
27 | 22.6 | ≤ 4.74 mL/min/kg | 79.1 mL/min/kg | 28.4 µg/mL (≈ 104 µM) |  |  | Cc1cn[nH]c1C1(C)CCN(Cc2cnn(C)c2)CC1
28 | 14 | 46.5 mL/min/kg | 357 mL/min/kg | 35.2 µg/mL (≈ 104 µM) |  |  | CC(=O)N1CCC(Cn2ccnc2-c2cc3ccccc3s2)CC1
29 | 126 | 6.14 mL/min/kg | 25.1 mL/min/kg |  |  |  | COCCOc1cnc2ccn([C@H](C)c3nnc4c(F)cc(-c5cnn(C)c5)cn34)c(=O)c2c1
30 | 0.45 | 194 mL/min/kg | 620 mL/min/kg | 47.2 µg/mL (≈ 170 µM) |  |  | COc1ccc(CNCc2cccc3ccccc23)cc1
31 |  | ≤ 4.74 mL/min/kg | ≤ 10.7 mL/min/kg | 26 µg/mL (≈ 112 µM) |  |  | CCCCNC(=O)c1ccc2c(c1)nnn2C
32 | 2.25 | 7.54 mL/min/kg | 89.6 mL/min/kg | 44.8 µg/mL (≈ 160 µM) |  |  | Cn1c(CNC(=O)Cc2ccccc2)nc2ccccc21
33 | 1.49 | 89.9 mL/min/kg | 582 mL/min/kg |  | 0.0152 | 0.0434 | Cc1cccnc1Nc1cccc(C2CCCN(CC(=O)Nc3nccs3)C2)n1 (centres undefined)
34 | 15 | ≤ 4.74 mL/min/kg | 27.4 mL/min/kg |  |  |  | N#Cc1cnc2cc(F)cc(F)c2c1NC1CCN(CC(N)=O)CC1
35 | 0.579 | 16.5 mL/min/kg | 742 mL/min/kg |  |  |  | CC(C)CCCNC(=O)c1[nH]ncc1Br
36 | 21.8 | 7.73 mL/min/kg | 20.9 mL/min/kg | 48.3 µg/mL (≈ 140 µM) |  |  | CC(=O)NC1(C(=O)N2CCCN(c3cccnn3)CC2)CCCCC1
37 | 7.19 | ≤ 4.74 mL/min/kg | 146 mL/min/kg |  |  |  | CC(C)(C)c1[nH]cnc1/C=c1\[nH]c(=O)/c(=C/c2ccccc2)[nH]c1=O
38 |  | 88.8 mL/min/kg | 1710 mL/min/kg | 32.2 µg/mL (≈ 104 µM) |  |  | Cc1nc(C#N)c(C#N)n1Cc1csc(-c2cccs2)n1
39 |  |  |  | 0.33 µg/mL (≈ 1.07 µM) |  |  | COc1cccc(/C=C2/N=C(c3ccccc3)NC2=O)c1OC
40 |  | 34.9 mL/min/kg | 132 mL/min/kg | 47.6 µg/mL (≈ 179 µM) |  |  | O=C(Nc1cccc2cnccc12)c1cccc(F)c1

Row | MDR1-MDCK efflux ratio | intrinsic clearance, human liver microsomes | intrinsic clearance, rat liver microsomes | aqueous solubility | fraction unbound, human plasma | fraction unbound, rat plasma | Compound
41 | 22.3 | ≤ 4.74 mL/min/kg | 16.1 mL/min/kg |  |  |  | CCCOc1c2c(nc3cc(C4CCOCC4)nn13)CCC2
42 | 23.3 | ≤ 4.74 mL/min/kg | 32.4 mL/min/kg | 25 µg/mL (≈ 71.3 µM) |  |  | Cc1ccc(-c2cn(CC3CCN(Cc4c[nH]c(C)n4)CC3)nn2)cc1
43 | 0.337 | 38.9 mL/min/kg | 573 mL/min/kg | 40.1 µg/mL (≈ 150 µM) |  |  | C(=C\c1ccccc1)/CNCc1ccc2c(c1)OCO2
44 |  | 96.9 mL/min/kg | 302 mL/min/kg | 21.8 µg/mL (≈ 76.4 µM) |  |  | Cc1ccc(-c2nnc(SCCn3cccn3)[nH]2)cc1
45 |  | 10.2 mL/min/kg | 24.1 mL/min/kg |  |  |  | CN(c1ccccc1N)S(C)(=O)=O
46 |  | ≤ 4.74 mL/min/kg | ≤ 10.7 mL/min/kg | 26.9 µg/mL (≈ 129 µM) |  |  | O=C(O)c1cc(Cl)cc2cccnc12
47 | 25.7 | ≤ 4.74 mL/min/kg | 78.7 mL/min/kg | 25.9 µg/mL (≈ 87.2 µM) |  |  | Cc1ccc(-c2ccnc(N3C[C@@H](C)NC[C@@H]3C)n2)c(C)n1
48 | 1.2 | ≤ 4.74 mL/min/kg | ≤ 10.7 mL/min/kg |  |  |  | O=C(O)Cc1ccc(Oc2ccncc2)cc1
49 | 0.602 | 15 mL/min/kg | 703 mL/min/kg |  |  |  | Cc1cc(CN2CC(O)(CC#N)C2)ccc1F
50 | 1.03 | 165 mL/min/kg | 1790 mL/min/kg | 57.3 µg/mL (≈ 159 µM) |  |  | CN(C)c1nc(CN2CCOCC2)nc2scc(-c3cccs3)c12
51 | 0.664 | 11 mL/min/kg | 124 mL/min/kg | 26.8 µg/mL (≈ 95.7 µM) |  |  | COc1cc(CNc2nc3ccccc3nc2C)ccn1
52 | 0.717 | 84.7 mL/min/kg | 800 mL/min/kg | 36.2 µg/mL (≈ 133 µM) |  |  | Fc1ccccc1CN1CCN(c2ncccn2)CC1
53 |  | ≤ 4.74 mL/min/kg | ≤ 10.7 mL/min/kg |  |  |  | N=C(N)NCCCCC(=O)Nc1ccc(C[C@H](NC(=O)[C@@H]2CCCN2S(=O)(=O)c2ccccc2)C(=O)O)cc1
54 | 2.29 | 70.4 mL/min/kg | 1100 mL/min/kg | 24.9 µg/mL (≈ 77.1 µM) |  |  | COCc1cc(-c2nc(CCc3ccccc3)n[nH]2)ccc1OC
55 |  | ≤ 4.74 mL/min/kg | 149 mL/min/kg | 47.5 µg/mL (≈ 174 µM) |  |  | O=C(NCCc1ccc(O)c(O)c1)Nc1ccccn1
56 |  | 37.8 mL/min/kg | 336 mL/min/kg |  |  |  | O=C(COc1cccc(-n2cncn2)c1)N1CCc2ccccc21
57 | 13.3 | 158 mL/min/kg | 473 mL/min/kg | 54 µg/mL (≈ 124 µM) |  |  | CCn1cc(CN2CCC(c3nc(N(C)C)ncc3-c3ccc(OC)cc3)CC2)c(C)n1
58 | 24.7 | 191 mL/min/kg | 1450 mL/min/kg | 10.1 µg/mL (≈ 23.5 µM) | 0.0566 | 0.0797 | C=CC(=O)N1CCC(CNc2ncnc(N)c2-c2ccc(Oc3ccccc3)cc2)CC1
